Experimental data reported in patent publication US12110286B2, “Benzimidazolone derived inhibitors of BCL6” (Cancer Research Technology Limited, priority 2017, dated 2024).

Target: Trx-6×His-BCL6 (human BCL6 BTB domain covering amino-acid sequence 5-129) (Homo sapiens (Human), UniProt P41182)
Test: HTRF in vitro assay (BCL6 / BCOR-AF633 peptide)
Format: binding
Conditions: for activity in the HTRF assay: result in words
Description: The % inhibition at each concentration was calculated by normalising FRET ratio to the appropriate high (DMSO with all reagents) and low (DMSO without BCL6) controls.

[1] = further generated data, 1 nM Trx-6×His-BCL6, 300 nM BCOR-AF633 peptide, 0.5 nM anti-6×His-Terbium cryptate
[2] = initially generated data, 10 nM Trx-6×His-BCL6, 300 nM BCOR-AF633 peptide, 1 nM anti-6×His-Terbium cryptate

## Cn1c(=O)n(CCC(C)(O)CCO)c2cc(Nc3nc(Cl)ncc3Cl)ccc21 (centres unmarked) [5-((2,5-dichloropyrimidin-4-yl)amino)-3-(3,5-dihydroxy-3-methylpentyl)-1-methyl-1,3-dihydro-2H-benzo[d]imidazol-2-one]
  activity in the HTRF assay: did not exhibit the desired activity

## Cn1c(=O)n(CCC(C)(C)O)c2cc(Nc3nc(OCC(F)(F)F)ncc3Cl)ccc21 [Example 39a, 5-((5-Chloro-2-(2,2,2-trifluoroethoxy)pyrimidin-4-yl)amino)-3-(3-hydroxy-3-methylbutyl)-1-methyl-1,3-dihydro-2H-benzo[d]imidazol-2-one]
[1]
  HTRF pIC50: 6.09

## CCN(CC)CCn1c(=O)n(C)c2ccc(Nc3ccnc(Cl)c3C#N)cc21 [2-chloro-4-((3-(2-(diethylamino)ethyl)-1-methyl-2-oxo-2,3-dihydro-1H-benzo[d]imidazol-5-yl)amino)nicotinonitrile]
  activity in the HTRF assay: did not exhibit the desired activity

## CCC(C)(O)CCn1c(=O)n(C)c2ccc(Nc3nc(-n4nc(C)cc4C)ncc3Cl)cc21 (centres unmarked) [Example 15f]
[1]
  HTRF pIC50: 6.00

## C[C@@H]1C[C@H](C)CN(C(=O)c2cc(Nc3ccc4c(c3)n(CCC(C)(C)O)c(=O)n4C)c(Cl)cn2)C1 [Example 36e, 5-((5-chloro-2-((3R,5S)-3,5-dimethylpiperidine-1-carbonyl)pyridin-4-yl)amino)-3-(3-hydroxy-3-methylbutyl)-1-methyl-1,3-dihydro-2H-benzo[d]imidazol-2-one]
[1]
  HTRF pIC50: 6.22

## C[C@@H]1CN(c2ncc(Cl)c(Nc3ccc4c(c3)n(CCC(C)(C)O)c(=O)n4CCN(C)C)n2)C[C@H](C)C1(F)F [Example 37a, 5-((5-chloro-2-((3S,5R)-4,4-difluoro-3,5-dimethylpiperidin-1-yl)pyrimidin-4-yl)amino)-1-(2-(dimethylamino)ethyl)-3-(3-hydroxy-3-methylbutyl)-1,3-dihydro-2H-benzo[d]imidazol-2-one]
[1]
  HTRF pIC50: 6.53

## Cn1c(=O)n(CCC(C)(C)O)c2cc(Nc3nc(N4CCCC4=O)ncc3Cl)ccc21 [Example 30b, 5-((5-chloro-2-(2-oxopyrrolidin-1-yl)pyrimidin-4-yl)amino)-3-(3-hydroxy-3-methylbutyl)-1-methyl-1,3-dihydro-2H-benzo[d]imidazol-2-one]
[1]
  HTRF pIC50: 5.99

## CCOC(=O)c1cc(Nc2ccc3c(c2)n(CC[C@@H](C)O)c(=O)n3C)n2nccc2n1 [Example 1o, Ethyl 7-[[3-[(3R)-3-hydroxybutyl]-1-methyl-2-oxo-benzimidazol-5-yl]amino]pyrazolo[1,5-a]pyrimidine-5-carboxylate]
[1]
  HTRF pIC50: 5.48
[2]
  HTRF pIC50: 5.58

## COC(=O)C(C)Cn1c(=O)n(C)c2ccc(Nc3ccnc(Cl)c3C#N)cc21 (centres unmarked) [Example 3b, Methyl 3-[6-[(2-chloro-3-cyano-4-pyridyl)amino]-3-methyl-2-oxo-benzimidazol-1-yl]-2-methyl-propanoate]
[1]
  HTRF pIC50: 5.35
[2]
  HTRF pIC50: 5.39

## CCOC(CCn1c(=O)n(C)c2ccc(Nc3ccnc(Cl)c3C#N)cc21)C(=O)OC (centres unmarked) [Example 10c]
[1]
  HTRF pIC50: 5.69
[2]
  HTRF pIC50: 5.65

## CCC(C)(O)CCn1c(=O)n(C)c2ccc(Nc3ccnc(Cl)c3C#N)cc21 (centres unmarked) [Example 27c, 2-chloro-4-((3-(3-hydroxy-3-methylpentyl)-1-methyl-2-oxo-2,3-dihydro-1H-benzo[d]imidazol-5-yl)amino)nicotinonitrile]
[1]
  HTRF pIC50: 5.93

## Cn1c(=O)n(CCC(C)(C)O)c2cc(Nc3ccnc(Br)c3C#N)ccc21 [Example 1k, 2-bromo-4-[[3-(3-hydroxy-3-methyl-butyl)-1-methyl-2-oxo-benzimidazol-5-yl]amino]pyridine-3-carbonitrile]
[1]
  HTRF pIC50: 5.82
[2]
  HTRF pIC50: 5.63

## Cn1c(=O)n(CCC2(O)CCC2)c2cc(Nc3ccnc(Cl)c3C#N)ccc21 [Example 18a, 2-chloro-4-((3-(2-(1-hydroxycyclobutyl)ethyl)-1-methyl-2-oxo-2,3-dihydro-1H-benzo[d]imidazol-5-yl)amino)nicotinonitrile]
[1]
  HTRF pIC50: 5.90

## Cn1c(=O)n(CCC(C)(C)O)c2cc(Nc3nc(-n4ccc(C(F)(F)F)n4)ncc3Cl)ncc21 [6-((5-chloro-2-(3-(trifluoromethyl)-1H-pyrazol-1-yl)pyrimidin-4-yl)amino)-1-(3-hydroxy-3-methylbutyl)-3-methyl-1,3-dihydro-2H-imidazo[4,5-c]pyridin-2-one]
  activity in the HTRF assay: did not exhibit the desired activity

## Cn1c(=O)n(CC2CCN2C(=O)OC(C)(C)C)c2cc(Nc3ccnc(Cl)c3C#N)ccc21 (centres unmarked) [Example 19d]
[1]
  HTRF pIC50: 5.44

## COCC(C)(O)CCn1c(=O)n(C)c2ccc(Nc3ccnc(Cl)c3C#N)cc21 (centres unmarked) [Example 27b, 2-chloro-4-((3-(3-hydroxy-4-methoxy-3-methylbutyl)-1-methyl-2-oxo-2,3-dihydro-1H-benzo[d]imidazol-5-yl)amino)nicotinonitrile]
[1]
  HTRF pIC50: 6.14

## Cn1c(=O)n(CCC(C)(C)O)c2cc(Nc3nc(Cl)ncc3Cl)ncc21 [6-((2,5-dichloropyrimidin-4-yl)amino)-1-(3-hydroxy-3-methylbutyl)-3-methyl-1,3-dihydro-2H-imidazo[4,5-c]pyridin-2-one]
  activity in the HTRF assay: did not exhibit the desired activity

## C[C@@H]1CN(c2ncc(Cl)c(Nc3cc4c(cc3F)n(C)c(=O)n4CCC(C)(C)O)n2)C[C@H](C)O1 [Example 20p]
[1]
  HTRF pIC50: 6.44

## CCN(C)c1ncc(Cl)c(Nc2ccc3c(c2)n(CCC(C)(C)O)c(=O)n3C)n1 [Example 20i]
[1]
  HTRF pIC50: 6.17

## Cc1cc(C)n(-c2ncc(Br)c(Nc3ccc4c(c3)n(CCC(C)(C)O)c(=O)n4C)n2)n1 [Example 15q]
[1]
  HTRF pIC50: 6.09

## Cn1c(=O)n(CC(O)C(C)(C)O)c2cc(Nc3ccnc(Cl)c3C#N)ccc21 (centres unmarked) [Example 10a, 2-Chloro-4-[[3-(2,3-dihydroxy-3-methyl-butyl)-1-methyl-2-oxo-benzimidazol-5-yl]amino]pyridine-3-carbonitrile]
[1]
  HTRF pIC50: 5.93
[2]
  HTRF pIC50: 5.81

## COC(=O)[C@@H](N)CCn1c(=O)n(C)c2ccc(Nc3ccnc(Cl)c3C#N)cc21 [Example 6, Methyl (2S)-2-amino-4-[6-[(2-chloro-3-cyano-4-pyridyl)amino]-3-methyl-2-oxo-benzimidazol-1-yl]butanoate]
[1]
  HTRF pIC50: 6.00
[2]
  HTRF pIC50: 5.97

## CN(C)C(=O)C1CCN(c2cc(Nc3ccc4c(c3)n(CCC(C)(C)O)c(=O)n4C)c(Cl)cn2)CC1 [Example 36c, 1-(5-chloro-4-((3-(3-hydroxy-3-methylbutyl)-1-methyl-2-oxo-2,3-dihydro-1H-benzo[d]imidazol-5-yl)amino)pyridin-2-yl)-N,N-dimethylpiperidine-4-carboxamide]
[1]
  HTRF pIC50: 5.88

## Cn1c(=O)n(CCC(C)(C)O)c2cc(Nc3cc(Cl)ncc3C(F)F)ccc21 [5-((2-chloro-5-(difluoromethyl)pyridin-4-yl)amino)-3-(3-hydroxy-3-methylbutyl)-1-methyl-1,3-dihydro-2H-benzo[d]imidazol-2-one]
  activity in the HTRF assay: did not exhibit the desired activity

## C[C@@H]1CN(c2ncc(Cl)c(Nc3ccc4c(c3)n(CCC(C)(C)O)c(=O)n4CCO)n2)C[C@H](C)C1(F)F [Example 40a, 5-[[5-chloro-2-[(3S,5R)-4,4-difluoro-3,5-dimethyl-1-piperidyl]pyrimidin-4-yl]amino]-1-(2-hydroxyethyl)-3-(3-hydroxy-3-methyl-butyl)benzimidazol-2-one]
[1]
  HTRF pIC50: 6.49

## COC(=O)C(CCn1c(=O)n(C)c2ccc(Nc3ccnc(Cl)c3C#N)cc21)OC (centres unmarked) [Example 10b]
[1]
  HTRF pIC50: 5.57
[2]
  HTRF pIC50: 5.71

## CC(=O)NC(C)CCn1c(=O)n(C)c2ccc(Nc3ccnc(Cl)c3C#N)cc21 (centres unmarked) [Example 13, N-[3-[6-[(2-Chloro-3-cyano-4-pyridyl)amino]-3-methyl-2-oxo-benzimidazol-1-yl]-1-methyl-propyl]acetamide]
[2]
  HTRF pIC50: 5.75

## Cn1c(=O)n(CCC(C)(C)O)c2cc(Nc3ccnc(Cl)c3C#N)c(F)cc21 [Example 22f]
[1]
  HTRF pIC50: 5.75

## CN(C)c1ncc(Cl)c(Nc2ccc3c(c2)n(CCC(C)(C)O)c(=O)n3C)n1 [Example 15g]
[1]
  HTRF pIC50: 5.89

## Cn1c(=O)n(CC2CCCNC2)c2cc(Nc3ccnc(Cl)c3C#N)ccc21 (centres unmarked) [2-chloro-4-((1-methyl-2-oxo-3-(piperidin-3-ylmethyl)-2,3-dihydro-1H-benzo[d]imidazol-5-yl)amino)nicotinonitrile]
  activity in the HTRF assay: did not exhibit the desired activity

## COC(=O)CCCn1c(=O)n(C)c2ccc(Nc3ccnc(Cl)c3C#N)cc21 [Example 10d]
[1]
  HTRF pIC50: 5.29
[2]
  HTRF pIC50: 5.55

## Cn1c(=O)n(CC(O)C(C)(C)C)c2cc(Nc3ccnc(Cl)c3C#N)ccc21 (centres unmarked) [2-chloro-4-((3-(2-hydroxy-3,3-dimethylbutyl)-1-methyl-2-oxo-2,3-dihydro-1H-benzo[d]imidazol-5-yl)amino)nicotinonitrile]
  activity in the HTRF assay: did not exhibit the desired activity

## CCC1(Cn2c(=O)n(C)c3ccc(Nc4nc(N5C[C@@H](C)O[C@@H](C)C5)ncc4Cl)cc32)CNC(=O)O1 (some centres unmarked) [Example 20n]
[1]
  HTRF pIC50: 6.42

## CCC1(Cn2c(=O)n(C)c3ccc(Nc4nc(-n5ccc(C(F)(F)F)n5)ncc4Cl)cc32)CNC(=O)O1 (centres unmarked) [Example 20o]
[1]
  HTRF pIC50: 6.22

## CC1OC(=O)NC1Cn1c(=O)n(C)c2ccc(Nc3ccnc(Cl)c3C#N)cc21 (centres unmarked) [Example 34, 2-chloro-4-((1-methyl-3-((5-methyl-2-oxooxazolidin-4-yl)methyl)-2-oxo-2,3-dihydro-1H-benzo[d]imidazol-5-yl)amino)nicotinonitrile]
[1]
  HTRF pIC50: 5.31

## CCC1(Cn2c(=O)n(C)c3ccc(Nc4nc(N5C[C@@H](C)O[C@@H](C)C5)ncc4Cl)cc32)CN(C)C(=O)O1 (some centres unmarked) [Example 20l]
[1]
  HTRF pIC50: 6.39
